Structures can show the parent of a compound that is named as a salt.
Legend:
[1] = system: amphetamine-induced stereotypic behaviour; test: Amphetamine potentiation; type: in vivo; conditions: ip; rat; i.p.; 2 mg/kg DL-amphetamine sulphate i.v.; read-out: ED50 (dose at which amphetamine-induced behaviour is potentiated by 50%)
Procedure: Substances having antidepressant effects potentiate the amphetamine-inducedstereotypic behaviour of the rat. The ED50 value which is given is the dose at which the behaviour induced after i.v. administration of 2 mg/kg DL-amphetamine sulphate is potentiated by 50%. Lit.: J. L. Howard et al., in: Antidepressants: Neurochemical, Behavioral and Clinical Perspectives, edited by S. J. Enna et al., Raven Press, New York, Pages 107-120, 1981.

[2] = target: T1, serotonin receptors from calf hippocampus (Bos taurus, UniProt F6Q2H9); test: Serotonin receptor binding (3H-serotonin displacement); conditions: read-out: Ki (concentration at which 50% of the 3H-serotonin employed is displaced)
T1 construct: serotonin receptors from calf hippocampus; from tissue; host or cells: calf hippocampus
T1 sequence (F6Q2H9 1-422): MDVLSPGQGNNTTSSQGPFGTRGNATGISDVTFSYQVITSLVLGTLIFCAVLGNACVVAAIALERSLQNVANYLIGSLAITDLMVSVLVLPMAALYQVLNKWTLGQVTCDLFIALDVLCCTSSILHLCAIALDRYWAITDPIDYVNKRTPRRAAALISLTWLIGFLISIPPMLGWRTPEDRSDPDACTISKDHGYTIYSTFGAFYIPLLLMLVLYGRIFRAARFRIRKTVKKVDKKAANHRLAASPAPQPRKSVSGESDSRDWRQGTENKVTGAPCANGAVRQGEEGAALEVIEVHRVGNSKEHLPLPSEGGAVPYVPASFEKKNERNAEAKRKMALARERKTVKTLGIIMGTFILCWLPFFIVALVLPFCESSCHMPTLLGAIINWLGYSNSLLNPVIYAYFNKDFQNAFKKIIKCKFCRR
Source text: The direct or indirect effect on the serotonergic system by, for example, anxiolytic, tranquillising, neuroleptic or antidepressant active compounds is known. Substances according to the invention interact specifically with serotonin receptors from calf hippocampus. The concentration at which 50% of the ^3 H-serotonin employed is displaced is reported (Ki values). Lit.: Peroutka, S. J. and S. H. Snyder, Molec. Pharmacol. 16, 687, 1979.

immobility = test: Behavioral Despair; type: in vivo; conditions: Rattus norvegicus, ip; rats; i.p.; glass cylinder filled with water; read-out: ED50 (dose at which immobility is reduced by 50%)
Source text: When placed in a glass cylinder filled with water, rats initially show vigorous swimming movements which alternate with phases of immobility which increase in length. Many antidepressants of a variety of chemical structures shorten the duration of this immobility. The ED50 value indicates the dose of a test substance at which the immobility during the period of the experiment is reduced by 50%.
Lit.: R. D. Porsolt et al., Europ. J. Pharmacol. 47, 379-391, 1978.

[3] = system: shock-induced aggressive behaviour; test: Tedeschi test; type: in vivo; conditions: Mus musculus, ip; mice; i.p.; shock-induced aggression; read-out: ED50 (dose at which aggressive behaviour is reduced by 50%)
Source text: In mice, anxiolytics bring about a reduction in the shock-induced aggressive behaviour. The ED50 value indicates the dose at which the aggressive behaviour is reduced by 50% within the period of the experiment.
Lit.: Tedeschi et all, J. Pharmacol. Exp. Ther. 129, 28-34, 1954.

[4] = system: Passive avoidance behaviour; test: Passive avoidance behaviour; type: in vivo; conditions: Rattus norvegicus, ip; rats; i.p.; electric shock, time to re-entry of darkened box; read-out: ED50 (text: minimum effective dose (MED))
Source text: After entering a darkened box, rats receive an electric shock and thus avoid reentering the box. Rats under the influence of anxiolytics enter the box in spite of having experience the shock. The time up to entry into the box is timed with a stopwatch. The minimum effective dose (MED) in mg/kg is reported.

[5] = system: ptosis induced by tetrabenazine; test: Tetrabenazine antagonism; type: in vivo; conditions: Mus musculus, ip; mice; i.p.; tetrabenazine 20 mg/kg i.p.; read-out: ED50 (dose at which tetrabenazine-induced ptosis is reduced to 50%)
Procedure: Antidepressants antagonise the ptosis induced by tetrabenazine in mice. The ED50 value indicates the dose at which the ptosis induced by tetrabenazine (20 mg/kg i.p.) is reduced to 50%. Lit.: J. L. Howard et al., in: Antidepressants; Neuochemical, Behavioral and Clinical Perspectives, edited by S. J. Enna et al., Raven Press, New York, pages 117-120, 1981.

Row | IC50 [2] | Compound | ED50 [1] | ED50 [3] | also measured
1 | 0.01 µM | O=C1c2ccccc2C(=O)N1CCCCN1CCN(c2ncccn2)CC1 [Example 1, 2-(4-(4-(2-pyrimidinyl)-1-piperazinyl)butyl)isoindole-1,3(2H)dione] | 18 mg/kg |  | 
2 |  | O=C1c2ccccc2C(=O)N1CCCCN1CCN(c2ncc(-c3ccccc3)cn2)CC1 [Example 4, 2-(4-(4-(5-phenyl-2-pyrimidinyl)-1-piperazinyl)butyl)isoindole-1,3(2H)dion] | 3 mg/kg | 20 mg/kg | ED50 (immobility): 12 mg/kg; minimal effective dose [4]: 1 mg/kg
3 |  | O=C1c2ccccc2C(=O)N1CCCN1CCN(c2ncc(-c3ccccc3)cn2)CC1 [Example 6, 2-(3-(4-(5-Phenyl-2-pyrimidinyl)-1-piperazinyl)propyl)isoindole-1,3(2H)dione] |  | 15 mg/kg | ED50 [5]: 40 mg/kg
4 |  | O=C1c2ccccc2S(=O)(=O)N1CCCCN1CCN(c2ncccn2)CC1 [Example 7, 2-(4-(4-(2-Pyrimidinyl)-1-piperazinyl)butyl)-1,2-benzisothiazol-3-(2H)one 1,1-dioxide] |  | 5 mg/kg | minimal effective dose [4]: 0.5 mg/kg
5 |  | O=C1c2ccccc2C(=O)N1CCCCN1CCN(c2ncc(-c3c(F)cccc3Cl)cn2)CC1 [Example 8, 2-(4-(4-(5-(2-Chloro-6-fluorophenyl)-2-pyrimidinyl)-1-piperazinyl)butyl)-isoindole-1,3(2H)dione] | 1 mg/kg | 12 mg/kg | ED50 (immobility): 33 mg/kg
6 | 0.014 µM | O=C1c2cc(Cl)ccc2S(=O)(=O)N1CCCCN1CCN(c2ncccn2)CC1 [Example 10] |  |  | minimal effective dose [4]: 1 mg/kg
7 | 0.03 µM | O=C1c2ccc(Cl)cc2S(=O)(=O)N1CCCCN1CCN(c2ncccn2)CC1 [Example 11, 2-(4-(4-(2-Pyrimidinyl)-1-piperazinyl)butyl)-6-chloro-1,2-benzisothiazol-3(2H)one 1,1-dioxide] |  |  | minimal effective dose [4]: 1 mg/kg
8 |  | COc1ccc(-c2cnc(N3CCN(CCCCN4C(=O)c5ccccc5C4=O)CC3)nc2)cc1OC [Example 12, 2-(4-(4-(5-(3,4-Dimethoxyphenyl)- -2-pyrimidinyl)-1-piperazinyl)butyl)-isoindole-1,3(2H)dione] |  | 16 mg/kg | ED50 (immobility): 50 mg/kg
9 |  | O=C1c2ccccc2C(=O)N1CCN1CCN(c2ncc(-c3ccc(Cl)cc3)cn2)CC1 [Example 15, 1-(2-(4-(5-(4-Chlorophenyl)-2-pyrimidinyl)-1-piperazinyl)ethyl)isoindole-1,3(2H)dione] |  | 6 mg/kg | 
10 |  | O=C1c2ccccc2C(=O)N1CC(O)CN1CCN(c2ncc(-c3ccc(Cl)cc3)cn2)CC1 (stereo not drawn) [Example 18, 2-(3-(4-(5-(4-chlorophenyl)-2-pyrimidinyl)-1-piperazinyl)-2-hydroxypropyl)isoindole-1,3(2H)dione] |  | 9 mg/kg | ED50 [5]: 21 mg/kg; minimal effective dose [4]: 1 mg/kg
11 | 0.03 µM | O=C1Cc2ccccc2C(=O)N1CCCCN1CCN(c2ncccn2)CC1 [Example 19, 2-(4-(4-(2-pyrimidinyl)-1-piperazinyl)butyl)isoquinoline-1,3(2H,4H)dione] |  |  | 
12 |  | COc1ccc(-c2cnc(N3CCN(CCCCN4C(=O)Cc5ccccc5C4=O)CC3)nc2)cc1OC [Example 20, 2-(4-(4-(5-(3,4-Dimethoxyphenyl)-2-pyrimidinyl)-1-piperazinyl)butyl)-isoquinoline-1,3(2H,4H)dione] | 5 mg/kg |  | 
13 | 0.02 µM | O=C1c2ccc([N+](=O)[O-])cc2S(=O)(=O)N1CCCCN1CCN(c2ncccn2)CC1 [Example 24, 2-(4-(4-(2-Pyrimidinyl)-1-piperazinyl)butyl)-6-nitro-1,2-benzisothiazol-3(2H)one 1,1-dioxide] |  |  | 
14 | 0.01 µM | O=C1Nc2ccccc2S(=O)(=O)N1CCCN1CCN(c2ncccn2)CC1 [Example 32, 2-(3-(4-(2-Pyrimidinyl)-1-piperazinyl)propyl)1,2,4-benzothiadiazin-3(4H)on 1,1-dioxide] |  |  | 
15 | 0.06 µM | O=C1Nc2ccccc2S(=O)(=O)N1CCCCN1CCN(c2ncccn2)CC1 [Example 33, 2-(4-(4-(2-Pyrimidinyl)-1-piperazinyl)butyl)-1,2,4-benzothiadiazin-3(4H)one 1,1-dioxide] |  |  | 
16 | 0.009 µM | CN1C(=O)N(CCCN2CCN(c3ncccn3)CC2)S(=O)(=O)c2ccccc21 [Example 36, 2-(3-(4-(2-Pyrimidinyl)-1-piperazinyl)propyl)-4-methyl-1,2,4-benzothiadiazin-3(4H)one 1,1-dioxide] |  |  | 
17 | 0.08 µM | CN1C(=O)N(CCCCN2CCN(c3ncccn3)CC2)S(=O)(=O)c2ccccc21 [Example 37, 2-(4-(4-(2-Pyrimidinyl)-1-piperazinyl)butyl)-4-methyl-1,2,4-benzothiadiazin-3(4H)one 1,1-dioxide] |  |  | 
18 |  | NCCCCN1CCN(c2ncc(-c3ccccc3)cn2)CC1 [Example 49, 1-(4-aminobutyl)-5-(5-phenyl-2-phenyl-2-pyrimidinyl)piperazine] | 3 mg/kg |  | 
19 |  | NCCCCN1CCN(c2ncc(-c3c(F)cccc3Cl)cn2)CC1 [Example 50, 1-(4-Aminobutyl)-4-(5-(2-fluoro-6-chlorophenyl)-2-pyrimidinyl)piperazinehydrochloride] | 3 mg/kg | 32 mg/kg | 
20 |  | CCOC(=O)N1CCN(c2ncc(-c3ccccc3)cn2)CC1 [Example 54, ethyl 4-(5-phenyl-2-pyrimidinyl)-1-piperazinecarboxylate] | 0.4 mg/kg | 10 mg/kg | ED50 (immobility): 20 mg/kg; minimal effective dose [4]: 5 mg/kg
21 |  | c1ccc(-c2cnc(N3CCNCC3)nc2)cc1 [Example 60, 1-(5-phenyl-2-pyrimidinyl)piperazine] | 16 mg/kg |  | ED50 [5]: 5 mg/kg
22 |  | Fc1cccc(Cl)c1-c1cnc(N2CCNCC2)nc1 [Example 61, 1-(5-(2-Fluoro-6-chlorophenyl)-2-pyrimidinyl)piperazine] | 5 mg/kg |  | 
23 |  | c1ccc2c(-c3cnc(N4CCNCC4)nc3)c[nH]c2c1 [Example 64, 1-(5-(3-Indolyl)-2-pyrimidinyl)piperazine] | 2 mg/kg |  | ED50 [5]: 18 mg/kg
